Reference: paper PMC4537502 (Psychopharmacology, 2015)

Assays:
sigma-1R [1] = molecular target: T1, sigma-1R (Rattus norvegicus, UniProt Q9R0C9); assay: microPET with ^11C-SA4503, Logan graphical analysis and Cunningham-Lassen plot (sigma-1R occupancy); assay type: in vivo; conditions: for sigma-1R occupancy: rat brain, Cunningham-Lassen plot
T1 construct: from tissue; host or cells: brain of living rats (Wistar Unilever), in vivo microPET
Experimental: (§1) Because of limited availability of the test drug, the 60 mg/kg dose group was scanned only with ^11C-raclopride.
(§2) After drug administration and about 20 min before each microPET scan, animals were anesthetized with isoflurane (Pharmachemie BV, Haarlem, Netherlands). […] Both tracers were injected as a slow bolus (1 ml of saline-diluted tracer solution infused during a period of 1 min), using a Harvard-style injection pump.
From these samples, 25 μl of whole blood was collected and plasma (25 μl) was then obtained by centrifugation of the remaining sample (5 min at 13,000×g). Radioactivity in plasma and whole blood was determined using a calibrated gamma counter (CompuGamma CS1282, LKB-Wallac, Turku, Finland). Results are expressed as standardized uptake values (SUV), defined as [(plasma activity concentration (MBq/g) × body weight (g) / injected dose (MBq)]. Rat plasma was assumed to have a specific gravity of 1 g/ml.
(§3) Two rats were scanned in each scan session. They were positioned on heating mats in a microPET Focus 220 system, in transaxial position above each other with their brains in the field of view. Body temperature of the animals was kept close to normal with electronic temperature controllers. Heart rate and oxygen level of the blood during the scan were monitored using pulse oximeters (PulseSense, Nonin). […] A list mode protocol was used with a 76-min acquisition time.
(§4) Image reconstruction was performed using microPET Manager 2.3.3.6 (Siemens). The PET data were split according to position along the y-axis, so that a separate data set was acquired for each animal. The list mode data of the emission scans were reframed in a dynamic sequence of 6 × 10, 4 × 30, 2 × 60, 1 × 120, 1 × 180, 4 × 300, and 3 × 600 s (with an additional 960-s frame for the rat that was injected first). The data were reconstructed per time frame employing an iterative reconstruction algorithm (OSEM2D with Fourier rebinning, 4 iterations, and 16 subsets). […] Data sets were corrected for decay, random coincidences, scatter, and attenuation.
Logan graphical analysis was used to calculate regional tracer distribution volumes (VT). The starting time of the Logan fit was 20 min. Metabolite-corrected plasma radioactivity data were used as input function, and (uncorrected) whole blood radioactivity served to estimate the contribution of blood to brain radioactivity measured by the PET camera. […] The PMOD software package was used for curve fitting.

[2] = molecular target: dopamine D2 receptor (D2R) (Rattus norvegicus, UniProt P61169); assay: in vivo
Experimental: as §1, §2, §3, §4
In ^11C-raclopride scans of the brain, three-dimensional regions of interest (ROIs) were manually drawn over the left and right striatum and cerebellum, using the program ASIPro 6.3.3.0 (Siemens). […] Time-activity curves (TACs) were generated for these regions (Fig. 1). The results are expressed as dimensionless standardized uptake values (PET-SUV), defined as [(tissue activity concentration (MBq/g) × body weight (g) / injected dose (MBq)]. Brain tissue was assumed to have a specific gravity of 1 g/ml.
Plateau values for the striatum-to-cerebellum ratio were derived from this curve fit.

sigma-1R [3] = conditions: ^3H-(+)-pentazocine competition, ref Sahlholm et al. [2013]; read-out: high-affinity Ki at sigma-1R; cited from earlier work
D2R [4] = molecular target: D2R; design: method as in Pettersson et al. [2010]; conditions: ref Pettersson et al. [2010]; read-out: high-affinity Ki at D2R; cited from earlier work
D2R [5] = conditions: cited from earlier work
[6] = test system: dopamine release in striatum; conditions: rats, 1.7 mg/kg, ref Ponten et al. [2010]; cited from earlier work
[7] = test system: 6-hydroxydopamine-hemilesioned rats; conditions: 7.9 mg/kg, ref Ponten et al. [2013]; cited from earlier work
Arc gene expression = conditions: rats, 10 mg/kg, ref Waters et al. [2014]; cited from earlier work
rats = conditions: 15.9 mg/kg, ref Rung et al. [2008], Ponten et al. [2010]; cited from earlier work
habituated rats = conditions: 15.9 mg/kg, ref Rung et al. [2008], Ponten et al. [2010]; cited from earlier work
[8] = rat, 3 and 15 mg/kg pridopidine

dopamine D2 receptor (D2R), sequence (P61169 whole entry): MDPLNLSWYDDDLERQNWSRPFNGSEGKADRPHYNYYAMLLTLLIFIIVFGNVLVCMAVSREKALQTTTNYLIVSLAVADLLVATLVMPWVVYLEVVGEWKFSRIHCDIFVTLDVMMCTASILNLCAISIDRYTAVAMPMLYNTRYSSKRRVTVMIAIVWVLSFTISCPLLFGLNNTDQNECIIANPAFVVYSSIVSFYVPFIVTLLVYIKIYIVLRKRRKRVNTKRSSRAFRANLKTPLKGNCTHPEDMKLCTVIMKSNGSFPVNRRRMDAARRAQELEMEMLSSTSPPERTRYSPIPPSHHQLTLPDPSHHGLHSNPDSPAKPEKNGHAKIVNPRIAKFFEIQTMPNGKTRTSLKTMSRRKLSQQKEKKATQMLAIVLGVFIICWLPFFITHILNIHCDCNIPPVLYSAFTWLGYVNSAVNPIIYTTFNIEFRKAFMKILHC
T1 sequence (Q9R0C9 whole entry): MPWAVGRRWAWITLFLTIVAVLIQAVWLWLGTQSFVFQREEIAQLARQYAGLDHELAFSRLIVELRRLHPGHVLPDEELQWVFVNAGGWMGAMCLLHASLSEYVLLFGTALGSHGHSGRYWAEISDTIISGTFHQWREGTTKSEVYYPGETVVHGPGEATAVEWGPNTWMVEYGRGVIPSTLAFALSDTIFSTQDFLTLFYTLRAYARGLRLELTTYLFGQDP

For `CCCN1CCC(c2cccc(S(C)(=O)=O)c2)CC1` [pridopidine, 4-[3-(methylsulfonyl)phenyl]-1-propylpiperidine], the sigma-1R occupancy (sigma-1R [1]; pridopidine 3 mg/kg s.c. 60 min before tracer) was 56.7 ± 2.3%, the sigma-1R occupancy (sigma-1R [1]; pridopidine 15 mg/kg s.c. 60 min before tracer) was 84.5 ± 1.7% and the “VT of ^11C-SA4503 (Logan graphical analysis)” value (sigma-1R [1]; rat whole brain and brain regions, 3 and 15 mg/kg pridopidine) was “dose-dependent reduction in VT for all regions investigated”. The “area under the brain time-activity curve (AUC) of ^11C-SA4503” value (sigma-1R [1]; [8]) was “significantly decreased”, the receptor occupancy at 3 mg/kg (sigma-1R [1]; rat, sc, read-out: sigma-1R occupancy, rat brain, pridopidine 3 mg/kg s.c. 60 min before tracer, Cunningham-Lassen plot) was 57 ± 2% and the receptor occupancy at 15 mg/kg (sigma-1R [1]; rat, sc, read-out: sigma-1R occupancy, rat brain, pridopidine 15 mg/kg s.c. 60 min before tracer, Cunningham-Lassen plot) was 85 ± 2%. For the same compound, the “reduction of ^11C-raclopride binding” value ([2]; rat striatum, 60 mg/kg pridopidine s.c.) was 44–66%, the “effect on ^11C-raclopride uptake (time-activity curves)” value (“effect on ^11C-raclopride uptake” for short) ([2]; rat, 3 mg/kg pridopidine) was “increase tracer uptake in striatum but not in cerebellum” and the “effect on ^11C-raclopride uptake” value ([2]; rat, 15 mg/kg pridopidine) was “increase tracer uptake in both striatum and cerebellum to a rather minor extent”. For the same compound, the “effect on ^11C-raclopride uptake” value ([2]; rat, 60 mg/kg pridopidine) was “striking increase of the uptake of ^11C-raclopride in both striatum and cerebellum”, the “changes in ^11C-raclopride binding” value [2, 8] was “No significant changes” and the receptor occupancy at 60 mg/kg ([2]; rat, sc, read-out: D2R occupancy (SRTM fit)) was 44%. The Ki (sigma-1R [3]) was ~0.07 µM, the Ki (D2R [4]) was 7.52 µM and the D2R occupancy (D2R [5]; Sprague-Dawley rats, 10 mg/kg, ex vivo radioligand binding, ref Natesan et al. [2006]) was 35%. For the same compound, the “ED50 of D2R occupancy” value (D2R [5]; Sprague-Dawley rats, ex vivo radioligand binding, ref Natesan et al. [2006]) was 18.99 mg/kg, the “time to maximal D2R occupancy after s.c. injection” value (D2R [5]; rat, ref Natesan et al. ([2006])) was ≤ 1 h and the “time maximal D2R occupancy is maintained” value (D2R [5]; rat, s.c., ref Natesan et al. ([2006])) was 4 h. For the same compound, the “effect on dopamine release in striatum” value [6] was “increased dopamine release in striatum”, the “effect on L-DOPA-induced rotational asymmetry” value [7] was “decreased L-DOPA-induced rotational asymmetry in 6-hydroxydopamine-hemilesioned rats” and the “effect on Arc gene expression in frontal cortex” value (Arc gene expression) was “induced Arc gene expression in frontal cortex”. The “effect on MK-801- and amphetamine-induced hyperlocomotion” value (rats) was “decreased MK-801- and amphetamine-induced hyperlocomotion” and the “effect on locomotor activity in habituated rats” value (habituated rats) was “increased locomotor activity in habituated rats”.
